From patent US20040138301A1, “Chemical uncouplers for the treatment of obesity” (priority 2002, published 2004)
pEC50: −log10 of the molar value. Like-named read-outs stand apart in the source and are kept apart here.

What was measured:
FSK-4 cells = assay: Assay (IV): Glucose utilisation in FSK-4 cells; assay type: cell-based; details: for pEC50: read-out: FSK4 EC50; for Emax: read-out: FSK4 Emax (% of FCCP)
Experimental: Assay (IV): Glucose Utilisation in FSK-4 Cells
The assay measures indirectly the activity of the respiratory chain in FSK-4 cells by using D-(6-^3H(N))-glucose. The ^3H-proton will first be released in the TCA cyclus and transported to the respiratory chain where it will be incorporated into water. The water is thereafter separated from the D-(6-^3H(N))-glucose by evaporation. Finally, the radioactivity in the water is determined using a Topcounter.
FSK-4 cells obtained from ATCC (Maryland, USA), are cultured in growth medium (McCoy's medium with the following addition 100 units/ml penicillin and streptomycin and 10% FCS (fetal calf serum)) at 37° C. and 5% CO2. All media are obtained by Gibco (Life Technologies, Maryland, USA) where not otherwise mentioned.
At day zero the cells are harvested using trypsin-EDTA and washed in assay medium (MEM medium with the following addition 1× non-essential amino acids (M7145, 2 mM glutamin, 100 units/ml pencillin and streptomycin, 0.0075% sodium bicarbonate, 1 mM sodium pyrovate and 2% horse serum) using centrifugation. The cells are plated into single StripPlates wells (Corning B.V.Life Sciences, The Netherlands) that are placed into 24-well plates (Corning B.V.Life Sciences, The Netherlands) with a concentration of 1,5×10^4 cells/100 μl assay medium/well. The cells are then incubated at 37° C. and 5% CO2 overnight.
(§1) The next day the compounds to be tested are diluted to different concentrations in DMSO (Sigma, Missouri, USA) to 100 times final concentration. They are then diluted to a final concentration in assay medium containing 10 μCi/ml D-(6-^3H(N))-glucose (PerkinElmer Life Sciences Inc., Boston, USA). The medium is removed from the cells and 200 μl of the compound dilutions are added in duplicates. The cells are then incubated for another 24 hours at 37° C. and 5% CO2. Finally the cells are lysed by adding 50 μl 10% TCA (tri-chloroacetatic acid). 300 μl of sterile water is then added to the 24-wells that surrounds the StripPlate wells. The plate is sealed with Top-seal-tape (Packard, PerkinElmer Life Sciences Inc., Boston, USA) and the plate is incubated in a heating cupboard at 50° C. to equilibrium the radioactive water formed in the respiratory chain into the water in the 24-well plate by evaporate. The plates incubate for 8 hours where the heating cupboard is turned off. The top seal is removed when the samples have reached room temperature. One ml scintillation liquid (Packard Microscient, PerkinElmer Life Sciences Inc., Boston, USA) is added to all the samples and the radioactivity is determined using a Topcounter (Packard, PerkinElmer Life Sciences Inc., Boston, USA). Non-specific activity is determined by evaporating 200 μl of the dilution medium containing the D-(6-^3H(N))-glucose into 300 μl sterile water, and total radioactivity is determined by counting 5 μl assay medium with 10 μCi/ml D-(6-^3H(N))-glucose.
All calculations are done using GraphPad Prism 3.0 (GraphPad software, Inc.) From concentration-response curves the half maximal concentration (EC50) and maximal efficacy (Emax) are calculated using equation 1.
Y=Bottom+(Top−Bottom)/(1+10^((LogEc50-X)*slope))
(§2) X is the logarithm of the molar concentration of the test compound.
Y is the degree of stimulation caused by the compound measured as percentage of the basal stimulation.
The calculated EC50 value is then used to determine the concentrations used in a study where the Hill slope is calculated.
From the double logarithmic plot of the increase in glucose utilisation and the compound concentration the Hill slope is calculated accordingly to equation 2.
It is presumed, that the maximal increase in the glucose utilisation (as measured in the FSK-4 glucose utilisation assay) is limited by the capacity of the metabolism.

HEP-G2 cells = assay: cells; details: Homo sapiens
Experimental: Assay (I): Glucose utilisation in a human hepatocytes cell line (HEP-G2 cells)
The assay measures indirectly the activity of the respiratory chain in HEP-G2 cells by using D-(3-^3H(N))-glucose. The ^3H-proton will first be released during the metabolism of glucose where it will be incorporated into water. The water is thereafter separated from the D-(3-^3H(N))-glucose by evaporation. Finally, the radioactivity in the water is determined using a Topcounter.
HEP-G2 cells obtained from ATCC (Maryland, USA), are cultured in assay medium (MEM medium) with the following addition 1× non-essential amino acids (M7145, 2 mM glutamine, 100 units/ml penicillin and streptomycin, 0.0075% sodium bicarbonate, 1 mM sodium pyrovate and 0.5% BSA (Bovin Serum Albumin, Sigma Missouri, USA)) at 37° C. and 5% CO2. All media are obtained by Gibco (Life Technologies, Maryland, USA) where not otherwise mentioned.
At day zero the cells are harvested using trypsin-EDTA and washed in assay medium using centrifugation. […] The cells are then incubated at 37° C. and 5% CO2 overnight.
as §1, with “diluted” for “diluted to different concentrations”, “μCi/ml D-(3-^3H(N))-glucose” for “μCi/ml D-(6-^3H(N))-glucose”, “another 3” for “another 24”, “TCA (trichloroacetic” for “TCA (tri-chloroacetatic”, “the D-(3-^3H(N))-glucose” for “the D-(6-^3H(N))-glucose”, “μCi/ml D-(3-^3H(N))-glucose.” for “μCi/ml D-(6-^3H(N))-glucose.”
The cpm (counts per minute) representing the non-specific radioactivity in the D-(3-^3H(N))-glucose is subtracted from all incubated values. Then mean basal value (samples without any compound added) is subtracted from the values of all stimulated samples (samples added different concentrations of the different test compounds). All these calculations are done using GraphPad Prism 3.0 (GraphPad software, Inc.). The maximal stimulation caused by the test compounds is calculated in percentage of maximal stimulation caused by either DNP or FCCP.
When calculating the concentration-response curve the maximal glucose utilisation stimulated by FCCP or DNP (subtracted non-specific and basal values) is converted to 100% and all the other values are expressed in percentage of this value. Using these percentage values and the compound concentration a concentration-response curve is calculated using sigmoidal dose-response (variable slope) equation (all the calculations are done by GraphPad Prism 3.0 (GraphPad software, Inc.));
Y=Bottom+(Top−Bottom)/(1+10^((LogEC50-X)*slope))
as §2
Y is the degree of stimulation caused by the compound measured as a percentage of the maximal stimulation achieved by use of FCCP or DNP.
The results achieved with these concentrations are used to determine the slope in this area using the following equation: […]

[1] = FSK-4 cells, glucose utilisation, 24 hours incubation
[2] = FSK-4 cells, maximal efficacy relative to FCCP

| SMILES | pEC50 (FSK-4 cells; [1]) | Emax (FSK-4 cells; [2]) [%] | also measured |
| --- | --- | --- | --- |
| Cc1c(Cl)cc(C(C)(C)C)c(O)c1C(=O)Nc1ccc([N+](=O)[O-])cc1Cl [Example 5, 3-Tert-Butyl-5-Chloro-N-(2-Chloro-4-Nitrophenyl)-2-Hydroxy-6-Methyl-Benzamide] | 7.00 | 100 | pEC50 (HEP-G2 cells; HepG2, 3 h, read-out: HEP-G2 EC50, HEP-G2 cells, glucose utilisation, 3 hours incubation): 7.22; Emax (HEP-G2 cells; HepG2, read-out: HEP-G2 Emax (% of FCCP), HEP-G2 cells, maximal stimulation relative to FCCP): 95%; EC (Emax) (HEP-G2 cells; HepG2, read-out: HEP-G2 Emax (μM), HEP-G2 cells, concentration at which Emax is achieved (CEmax)): 0.3 µM |
| N#CC(C#N)=Cc1c[nH]c2ccc([N+](=O)[O-])cc12 [Example 35, 2-(5-Nitro-1H-Indol-3-Ylmethylene)-Malononitrile] | 5.30 | 50 | – |
| Cc1[nH]c2ccc([N+](=O)[O-])cc2c1C=C(C#N)C#N [Example 36, 2-(2-Methyl-5-Nitro-1H-Indol-3-Ylmethylene)-Malononitrile] | – | – | pEC50 (FSK-4 cells; 24 h): 5.20; Emax (FSK-4 cells): 76% |
| CC(C)(C)c1cc(/C=C(\C#N)C(=O)Nc2ccc(Cl)cc2)cc(C(C)(C)C)c1O [Example 83, N-(4-Chloro-Phenyl)-2-Cyano-3-(3,5-Di-Tert-Butyl-4-Hydroxy-Phenyl)-Acrylamide] | 5.96 | 120 | – |
| CCCCCCS(=O)(=O)/C(C#N)=C/c1cc(C(C)(C)C)c(O)c(C(C)(C)C)c1 [Example 91, 3-(3,5-Di-Tert-Butyl-4-Hydroxy-Phenyl)-2-(Hexane-1-Sulfonyl)-Acrylonitrile] | 5.42 | – | – |
| CC(C)(C)c1cc(Br)cc(C(=O)Nc2ccc(C#N)cc2Cl)c1O [Example 94, 5-Bromo-3-Tert-Butyl-N-(2-Chloro-4-Cyanophenyl)-2-Hydroxybenzamide] | 7.00 | 90 | – |
| Cc1c(Br)cc(C(C)(C)C)c(O)c1C(=O)Nc1ccccc1C(F)(F)F [Example 96, 3-Bromo-5-Tert-Butyl-6-Hydroxy-2-Methyl-N-(2-Trifluoromethylphenyl)Benzamide] | 4.70 | 40 | – |
| N#CC(C#N)=Cc1c(Br)[nH]c2ccccc12 [Example 97, 2-(2-Bromo-1H-Indol-3-Ylmethylene)Malononitrile] | 5.82 | 55 | – |
| Cc1[nH]c2c(Br)cccc2c1C=C(C#N)C#N [Example 98, 2-(7-Bromo-2-Methyl-1H-Indol-3-Ylmethylene)Malononitrile] | 5.18 | 105 | – |
| Cc1[nH]c2ccc(Br)cc2c1C=C(C#N)C#N [Example 99, 2-(5-Bromo-2-Methyl-1H-Indol-3-Ylmethylene)Malononitrile] | 5.77 | 40 | – |

The next lines start with results.

| pEC50 (FSK-4 cells; [1]) | SMILES | Emax (FSK-4 cells; [2]) [%] | also measured |
| --- | --- | --- | --- |
| 5.85 | CC(C)(C)c1cc(/C=C(\C#N)S(C)(=O)=O)cc(C(C)(C)C)c1O [Example 84, (E)-3-(3,5-Di-Tert-Butyl-4-Hydroxy-Phenyl)-2-Methanesulfonyl-Acrylonitrile] | – | – |
| 6.10 | CC(C)(C)c1cc(/C=C(\C#N)S(=O)(=O)c2ccc(Cl)cc2)cc(C(C)(C)C)c1O [Example 85, (E)-2-(4-Chloro-Benzenesulfonyl)-3-(3,5-Di-Tert-Butyl-4-Hydroxy-Phenyl)-Acrylonitrile] | – | – |
| 6.00 | CC(C)(C)c1cc(/C=C(\C#N)S(=O)(=O)c2ccc(F)cc2)cc(C(C)(C)C)c1O [Example 86, (E)-3-(3,5-Di-Tert-Butyl-4-Hydroxy-Phenyl)-2-(4-Fluoro-Benzenesulfonyl)-Acrylonitrile] | – | – |
| 6.15 | CC(C)(C)c1cc(/C=C(\C#N)S(=O)(=O)c2ccccc2)cc(C(C)(C)C)c1O [Example 87, (E)-2-Benzenesulfonyl-3-(3,5-Di-Tert-Butyl-4-Hydroxy-Phenyl)-Acrylonitrile] | – | – |
| 6.30 | CC(C)S(=O)(=O)/C(C#N)=C/c1cc(C(C)(C)C)c(O)c(C(C)(C)C)c1 [Example 88, (E)-3-(3,5-Di-Tert-Butyl-4-Hydroxy-Phenyl)-2-(Propane-2-Sulfonyl)-Acrylonitrile] | – | – |
| 6.30 | CC(C)(C)c1cc(/C=C(\C#N)S(=O)(=O)c2cc(Cl)ccc2Cl)cc(C(C)(C)C)c1O [Example 89, 3-(3,5-Di-Tert-Butyl-4-Hydroxy-Phenyl)-2-(2,5-Dichloro-Benzenesulfonyl)-Acrylonitrile] | – | – |
| 6.22 | CC(C)(C)c1cc(/C=C(\C#N)S(=O)(=O)c2ccc(Cl)cc2Cl)cc(C(C)(C)C)c1O [Example 90, 3-(3,5-Di-Tert-Butyl-4-Hydroxy-Phenyl)-2-(2,4-Dichloro-Benzenesulfonyl)-Acrylonitrile] | – | – |
| 6.00 | CC(C)(C)c1cc(/C=C(\C#N)S(=O)(=O)c2ccc(Br)cc2)cc(C(C)(C)C)c1O [Example 92, 2-(4-Bromo-Benzenesulfonyl)-3-(3,5-Di-Tert-Butyl-4-Hydroxy-Phenyl)-Acrylonitrile] | – | – |
| 7.00 | CC(C)(C)c1cc(/C=C(\C#N)S(=O)(=O)c2cccc(Br)c2)cc(C(C)(C)C)c1O [Example 93, 2-(3-Bromo-Benzenesulfonyl)-3-(3,5-Di-Tert-Butyl-4-Hydroxy-Phenyl)-Acrylonitrile] | – | – |
